Reference: patent publication US10124078B2, “Lipid-based nanoparticles” (BOARD OF REGENTS OF THE UNIVERSITY OF HOUSTON SYSTEM, priority 2011, dated 2018)

Experiments:
Aβ plaques = target: T1, Aβ plaques (Homo sapiens, UniProt P05067); experiment: Ex vivo staining of mouse brain tissue sections (confocal fluorescence), with CG competition; format: binding, APP/PSEN1 transgenic mouse
T1 construct: from tissue; host or cells: brain (cortex and hippocampus) of 5 and 7 month old APP/PSEN1 transgenic mice
T1 sequence (P05067 672-713 limits assumed): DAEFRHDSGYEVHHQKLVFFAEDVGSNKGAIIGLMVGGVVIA
Method: The mice were engineered to progressively develop cortical and hippocampal plaques in an age-related manner similar to that observed in human AD pathology. Saggital sections (30 μm thick) from euthanized non-transgenic (control), 5, and 7 month old APP/PSEN1 mice were incubated in a 3 mM solution of the liposomes (concentration of Me-XO4 in the solution was 1 μM) for 2 h, at RT. This was followed by extensive washing with PBS to remove unbound liposomes. The stained tissues were mounted with […]® mounting media (Vector Laboratories, Inc., Burlingame, Calif.) to reduce background fluorescence and viewed under a confocal microscope.

[1] = target: T2, cortical and hippocampal Aβ plaques (Homo sapiens, UniProt P05067); experiment: In vivo delivery to cortical and hippocampal plaques after tail vein injection, confocal microscopy of brain sections; set-up: species or system APP/PSEN1 mice; details: 48 h after injection
T2 construct: from tissue; host or cells: brain (cortex and hippocampus) of 5 and 7 month old APP/PSEN1 transgenic mice
T2 sequence (P05067 672-713 limits assumed): as above
Method: 48 h following injection, the mice were euthanized and their brains sectioned for confocal light microscopic studies. Identical mice were injected with molecular/free methoxy-XO4 ligand to serve as a positive control, and with untargeted liposomes and saline as negative controls.

in vivo staining of plaques (fluorescence of brain sections) ([1]; 5 month old APP/PSEN1 mice)	Compound	competition with Me-XO4-labeled liposomes for Aβ plaque deposits: fluorescence intensity and number of labeled plaques (Aβ plaques; 1 μM Me-XO4 and increasing concentrations of CG, cortex and hippocampus)	staining of Aβ plaque deposits on brain sections (Aβ plaques; 7 month old APP/PSEN1 mice, 30 μm sagittal sections, 1 μM Me-XO4, 2 h, RT)	in vivo staining of plaques (fluorescence of brain sections) ([1]; 7 month old APP/PSEN1 mice)
–	O=C(O)c1cc(/N=N/c2ccc(-c3ccc(/N=N/c4ccc(O)c(C(=O)O)c4)cc3)cc2)ccc1O [CG, Chrysamine G]	decrease in fluorescence intensity and the number of labeled plaques	–	–
no noteworthy fluorescence	COc1cc(/C=C/c2ccc(O)cc2)ccc1/C=C/c1ccc(O)cc1 [free methoxy-XO4 ligand, methoxy-XO4]	–	same plaque deposition pattern was observed	bright staining of both cortical and hippocampal plaques
